Measured values reported in the CheMixHub viscosity set.
Values joined by “and” are separate entries in the source; they are usually repeats but may differ in a detail not shown here. Equal entries are not always repeated.

C=CC(C)O (stereo not drawn)
101.32 kPa
Conditions | viscosity [mPa·s]
308.15 K | 1.294
313.15 K | 1.144
318.15 K | 1.015
323.15 K | 0.9032

CCCCCCN
viscosity
Conditions | 303.15 K | 308.15 K | 313.15 K
101 kPa | 0.6979 mPa·s and 0.729 mPa·s and 0.7123 mPa·s | 0.6 mPa·s and 0.6 mPa·s | 0.6134 mPa·s
101.33 kPa | 0.7123 mPa·s | – | 0.6134 mPa·s

CCCCCCn1cc[n+](C)c1.F[B-](F)(F)F
101 kPa
Conditions | viscosity
298.15 K | 171.8 mPa·s and 211.2 mPa·s
299.15 K | 198.1 mPa·s and 197.3 mPa·s
301.15 K | 177.2 mPa·s and 175.8 mPa·s
302.15 K | 167.2 mPa·s and 165.9 mPa·s
304.15 K | 148.4 mPa·s and 148.6 mPa·s
305.15 K | 141.2 mPa·s and 140.7 mPa·s
307.15 K | 127.5 mPa·s and 126.7 mPa·s
308.15 K | 145.4 mPa·s and 120.7 mPa·s and 120 mPa·s
313.15 K | 113.6 mPa·s and 55 mPa·s
318.15 K | 90.3 mPa·s
323.15 K | 72.8 mPa·s and 36 mPa·s

CCCO
Conditions | viscosity
293.15 K, 101.33 kPa | 2.185 mPa·s and 2.327 mPa·s
295.15 K, 101 kPa | 2.12 mPa·s
298.15 K, 100 kPa | 1.91 mPa·s
298.15 K, 101.31 kPa | 2.004 mPa·s
298.15 K, 101.33 kPa | 1.743 mPa·s
303 K, 101 kPa | 1.634 mPa·s
303 K, 101.33 kPa | 1.769 mPa·s
303.15 K, 101 kPa | 1.777 mPa·s and 1.591 mPa·s and 1.768 mPa·s
303.15 K, 101.3 kPa | 1.6 mPa·s and 1.784 mPa·s
303.16 K, 101 kPa | 1.92 mPa·s
308 K, 101.3 kPa | 1.461 mPa·s
308.15 K, 101.3 kPa | 1.488 mPa·s and 1.4 mPa·s
308.15 K, 101.33 kPa | 1.486 mPa·s and 1.466 mPa·s and 1.376 mPa·s
311 K, 101.3 kPa | 1.43 mPa·s
313 K, 101.3 kPa | 1.317 mPa·s
313.15 K, 101.3 kPa | 1.3 mPa·s
313.15 K, 101.33 kPa | 1.319 mPa·s
318.15 K, 101.3 kPa | 1.1 mPa·s
319 K, 101.3 kPa | 1.197 mPa·s
323 K, 101 kPa | 0.9714 mPa·s
323 K, 101.3 kPa | 1.165 mPa·s
323.15 K, 101 kPa | 1.15 mPa·s
323.15 K, 101.3 kPa | 0.92 mPa·s
323.15 K, 101.33 kPa | 1.136 mPa·s and 1.166 mPa·s

CC[n+]1ccccc1.N#C[N-]C#N
100 kPa
Conditions | viscosity [mPa·s]
293.15 K | 22.1
298.15 K | 18.92
303.15 K | 16.44
308.15 K | 14.31
313.15 K | 12.48
318.15 K | 10.98

CNc1ccccc1
Conditions | viscosity [mPa·s]
298 K, 101 kPa | 1.963
298 K, 101.3 kPa | 1.963
298.15 K, 101 kPa | 2.02
303 K, 101.3 kPa | 1.717
303 K, 101.33 kPa | 1.751
303.15 K, 101 kPa | 1.55
308 K, 101.3 kPa | 1.538
308.15 K, 101.33 kPa | 1.515
313 K, 101.3 kPa | 1.386
318 K, 101.3 kPa | 1.251
323.15 K, 101 kPa | 1.401

CO
Conditions | viscosity
293.15 K, 100 kPa | 0.587 mPa·s and 0.55 mPa·s and 0.58 mPa·s
293.31 K, 101 kPa | 0.589 mPa·s
297.8 K, 101 kPa | 0.5495 mPa·s
298 K, 101.3 kPa | 0.59 mPa·s
298.15 K, 100 kPa | 0.5417 mPa·s
298.15 K, 101.33 kPa | 0.5365 mPa·s and 0.6152 mPa·s and 0.562 mPa·s
299 K, 101 kPa | 0.8138 mPa·s
303 K, 100 kPa | 0.5211 mPa·s and 0.5 mPa·s
303 K, 101.3 kPa | 0.5773 mPa·s
303.15 K, 100 kPa | 0.527 mPa·s
303.15 K, 101.33 kPa | 0.5054 mPa·s and 0.541 mPa·s
303.16 K, 101 kPa | 0.56 mPa·s
303.21 K, 101 kPa | 0.511 mPa·s
308.15 K, 100 kPa | 0.498 mPa·s and 0.491 mPa·s and 0.4987 mPa·s
308.15 K, 101.3 kPa | 0.474 mPa·s
308.56 K, 101 kPa | 0.476 mPa·s
313 K, 100 kPa | 0.4373 mPa·s and 0.42 mPa·s
313 K, 101.3 kPa | 0.455 mPa·s
313.15 K, 100 kPa | 0.471 mPa·s and 0.465 mPa·s
313.15 K, 101.33 kPa | 0.4423 mPa·s and 0.463 mPa·s
318.15 K, 100 kPa | 0.448 mPa·s and 0.442 mPa·s and 0.4456 mPa·s
321.15 K, 101.32 kPa | 0.4101 mPa·s
322.15 K, 101.32 kPa | 0.4068 mPa·s
322.9 K, 101 kPa | 0.3997 mPa·s
323.15 K, 100 kPa | 0.3905 mPa·s and 0.428 mPa·s and 0.421 mPa·s
323.15 K, 101.3 kPa | 0.396 mPa·s
323.15 K, 101.32 kPa | 0.401 mPa·s
323.15 K, 101.33 kPa | 0.3907 mPa·s and 0.406 mPa·s

COC(=O)OC
viscosity
Conditions | 293.15 K | 298.15 K | 303.15 K | 308.15 K | 313.15 K | 318.15 K | 323.15 K
100 kPa | 0.62 mPa·s | 0.58 mPa·s | 0.5 mPa·s | 0.47 mPa·s | 0.45 mPa·s and 0.489 mPa·s | 0.43 mPa·s and 0.462 mPa·s | 0.38 mPa·s and 0.437 mPa·s
101 kPa | 0.624 mPa·s | 0.58 mPa·s | 0.55 mPa·s and 0.55 mPa·s | 0.49 mPa·s and 0.519 mPa·s | 0.45 mPa·s and 0.491 mPa·s | 0.4 mPa·s and 0.465 mPa·s | 0.442 mPa·s
101.3 kPa | 0.628 mPa·s | – | 0.553 mPa·s | 0.524 mPa·s | 0.496 mPa·s | – | –
101.33 kPa | – | – | 0.503 mPa·s | 0.474 mPa·s | – | – | –

COCCOCCOC
Conditions | viscosity
298.15 K, 101 kPa | 0.983 mPa·s and 0.983 mPa·s and 0.996 mPa·s
298.15 K, 101.32 kPa | 0.989 mPa·s
301.15 K, 100 kPa | 1.2 mPa·s and 1.3 mPa·s and 1.4 mPa·s
303.15 K, 101 kPa | 0.923 mPa·s
303.15 K, 101.33 kPa | 0.904 mPa·s
308.15 K, 101 kPa | 0.839 mPa·s and 0.839 mPa·s and 0.868 mPa·s
318.15 K, 101 kPa | 0.721 mPa·s and 0.721 mPa·s
318.15 K, 101.33 kPa | 0.728 mPa·s (4×) and 0.725 mPa·s and 0.728 mPa·s

ClC(Cl)C(Cl)Cl
viscosity
Conditions | 298.15 K | 303 K | 303.15 K | 313.15 K | 323.15 K
101 kPa | 1.632 mPa·s | – | 1.455 mPa·s and 1.521 mPa·s | – | –
101.3 kPa | – | – | 1.484 mPa·s | – | –
101.32 kPa | – | – | 1.45 mPa·s and 1.455 mPa·s | 1.367 mPa·s | 1.18 mPa·s
101.33 kPa | 1.581 mPa·s | 1.381 mPa·s | 1.455 mPa·s | – | 1.075 mPa·s

N#CCCO
Conditions | viscosity [mPa·s]
298 K, 101 kPa | 3.571

NCCCN
viscosity
Conditions | 293.15 K | 298.15 K | 303.15 K | 308.15 K | 313.15 K | 318.15 K | 323.15 K
100 kPa | 1.965 mPa·s and 1.96 mPa·s | 1.769 mPa·s and 1.74 mPa·s | 1.506 mPa·s and 1.57 mPa·s | 1.465 mPa·s and 1.39 mPa·s | 1.259 mPa·s and 1.26 mPa·s | 1.181 mPa·s and 1.07 mPa·s | –
101 kPa | – | – | 1.608 mPa·s and 1.594 mPa·s | 1.445 mPa·s and 1.423 mPa·s | 1.306 mPa·s and 1.297 mPa·s | 1.191 mPa·s and 1.181 mPa·s | 1.09 mPa·s and 1.07 mPa·s
101.3 kPa | 2.03 mPa·s | 1.83 mPa·s | 1.62 mPa·s | 1.42 mPa·s | 1.23 mPa·s | 1.13 mPa·s | –
101.33 kPa | 1.93 mPa·s | 1.67 mPa·s | 1.52 mPa·s and 1.594 mPa·s | 1.37 mPa·s and 1.423 mPa·s | 1.22 mPa·s and 1.297 mPa·s | 1.11 mPa·s and 1.181 mPa·s | 1.07 mPa·s

OC(C(F)(F)F)C(F)(F)F
101 kPa
Conditions | viscosity
298.15 K | 1.579 mPa·s and 1.619 mPa·s
303.15 K | 1.361 mPa·s
313.15 K | 0.989 mPa·s and 1 mPa·s
323.15 K | 0.765 mPa·s and 0.788 mPa·s

Oc1ccccc1
Conditions | viscosity
293.15 K, 101 kPa | 11.04 mPa·s and 11.04 mPa·s and 11.04 mPa·s
293.2 K, 101 kPa | 11.04 mPa·s
293.25 K, 101 kPa | 11.04 mPa·s and 11.04 mPa·s
298 K, 101.3 kPa | 9.41 mPa·s
298.15 K, 101 kPa | 8.945 mPa·s
302.95 K, 101 kPa | 7.09 mPa·s and 7.1 mPa·s
303 K, 101.3 kPa | 7.553 mPa·s
303.05 K, 101 kPa | 7.09 mPa·s
303.1 K, 101 kPa | 7 mPa·s
303.15 K, 101.33 kPa | 7 mPa·s
308 K, 101.3 kPa | 6.106 mPa·s
308.1 K, 101 kPa | 5.55 mPa·s
308.15 K, 101 kPa | 6.032 mPa·s and 4.649 mPa·s
308.15 K, 101.33 kPa | 5.969 mPa·s
313 K, 101.3 kPa | 4.971 mPa·s
313.05 K, 101 kPa | 4.79 mPa·s
313.25 K, 101 kPa | 4.74 mPa·s
313.35 K, 101 kPa | 4.74 mPa·s
318 K, 101.3 kPa | 4.056 mPa·s
322.95 K, 101 kPa | 3.28 mPa·s
323.1 K, 101 kPa | 3.2 mPa·s and 3.2 mPa·s
323.15 K, 101.33 kPa | 3.2 mPa·s and 3.432 mPa·s
